Substitutions are numbered along the chain they refer to.
Assays:
Type in all cases: cell-based
GluRδ2^Lc D535A+D782A = target: T1, GluRδ2^Lc D535A+D782A (Rattus norvegicus, UniProt Q63226, A654T/D535A/D782A); test: Two-electrode voltage-clamp recordings in Xenopus oocytes, GluRδ2^Lc D535A+D782A
T1 sequence (Q63226 24-1007 D535A/A654T/D782A): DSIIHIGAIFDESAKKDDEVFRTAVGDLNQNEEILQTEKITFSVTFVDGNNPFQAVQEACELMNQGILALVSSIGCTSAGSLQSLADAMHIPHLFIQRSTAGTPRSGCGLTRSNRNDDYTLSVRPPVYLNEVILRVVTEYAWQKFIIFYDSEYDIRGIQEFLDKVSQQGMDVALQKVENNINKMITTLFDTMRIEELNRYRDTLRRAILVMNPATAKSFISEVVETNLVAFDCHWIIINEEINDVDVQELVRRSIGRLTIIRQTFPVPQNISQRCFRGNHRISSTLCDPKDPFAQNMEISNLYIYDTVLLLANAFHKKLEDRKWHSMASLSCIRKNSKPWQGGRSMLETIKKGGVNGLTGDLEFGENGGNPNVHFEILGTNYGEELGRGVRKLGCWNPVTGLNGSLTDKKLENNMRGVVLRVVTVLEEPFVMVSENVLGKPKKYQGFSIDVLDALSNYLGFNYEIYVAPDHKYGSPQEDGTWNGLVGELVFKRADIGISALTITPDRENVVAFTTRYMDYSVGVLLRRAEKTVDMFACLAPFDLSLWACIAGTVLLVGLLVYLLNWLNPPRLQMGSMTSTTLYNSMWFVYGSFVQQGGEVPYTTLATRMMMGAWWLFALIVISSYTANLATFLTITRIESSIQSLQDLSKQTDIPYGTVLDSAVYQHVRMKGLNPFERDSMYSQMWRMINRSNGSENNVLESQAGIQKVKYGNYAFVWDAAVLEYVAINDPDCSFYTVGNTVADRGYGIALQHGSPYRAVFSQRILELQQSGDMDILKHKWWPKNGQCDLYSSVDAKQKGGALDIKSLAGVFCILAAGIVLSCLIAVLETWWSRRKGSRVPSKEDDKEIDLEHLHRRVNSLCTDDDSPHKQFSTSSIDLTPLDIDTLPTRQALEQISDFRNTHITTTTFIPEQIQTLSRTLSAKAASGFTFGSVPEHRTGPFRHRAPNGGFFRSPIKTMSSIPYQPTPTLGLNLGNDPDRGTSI

GluRδ2^Lc D535C+D782C = target: T2, GluRδ2^Lc D535C+D782C (Rattus norvegicus, UniProt Q63226, A654T/D535C/D782C); test: Two-electrode voltage-clamp recordings in Xenopus oocytes, GluRδ2^Lc D535C+D782C
T2 sequence (Q63226 24-1007 D535C/A654T/D782C): T1 sequence (Q63226 24-1007 D535A/A654T/D782A) with A512C, A759C

GluRδ2^Lc P528C+L789C = target: T3, GluRδ2^Lc P528C+L789C (Rattus norvegicus, UniProt Q63226, A654T/L789C/P528C); test: Two-electrode voltage-clamp recordings in Xenopus oocytes, GluRδ2^Lc P528C+L789C
T3 sequence (Q63226 24-1007 P528C/A654T/L789C): T1 sequence (Q63226 24-1007 D535A/A654T/D782A) with P505C, A512D, A759D, L766C

Ca^2+ potentiation (relative to baseline) (GluRδ2^Lc D535A+D782A; 3 mM Ca^2+, ± SEM) [fold] | Ca^2+ potentiation (relative to baseline) (GluRδ2^Lc D535C+D782C; 3 mM Ca^2+, ± SEM) [fold] | Ca^2+ potentiation (relative to baseline) (GluRδ2^Lc P528C+L789C; 3 mM Ca^2+, ± SEM) [fold] | D-serine + 0 mM Ca^2+ nH (GluRδ2^Lc D535A+D782A; Hill slope, 0 mM Ca^2+) | D-serine + 3 mM Ca^2+ nH (GluRδ2^Lc D535A+D782A; Hill slope, 3 mM Ca^2+) | D-serine + 0 mM Ca^2+ nH (GluRδ2^Lc D535C+D782C; Hill slope, 0 mM Ca^2+) | D-serine + 3 mM Ca^2+ nH (GluRδ2^Lc D535C+D782C; Hill slope, 3 mM Ca^2+) | D-serine + 0 mM Ca^2+ nH (GluRδ2^Lc P528C+L789C; Hill slope, 0 mM Ca^2+) | D-serine + 3 mM Ca^2+ nH (GluRδ2^Lc P528C+L789C; Hill slope, 3 mM Ca^2+) | SMILES
0.6 ± 0.01 | 0.9 ± 0.01 | 0.9 ± 0.01 | – | – | – | – | – | – | [Ca+2] [Ca^2+, calcium]
– | – | – | 1.0 | 1.1 | 0.9 | 1.0 | 1.1 | 0.8 | N[C@H](CO)C(=O)O [D-serine]

From article PMC2806602 (The Journal of neuroscience : the official journal of the …, 2009)
